Laboratory results: patent US20260085067A1, “CYCLIC SULFONAMIDE RIBONUCLEOTIDE REDUCTASE (RNR) INHIBITORS AND USES THEREOF” (Boundless Bio, Inc., priority 2022, published 2026)

How the values were obtained:
[1] = test system: pCHK1 (S345) in Colo320 DM cells; assay: Alphalisa assay, detection of pCHK1 (S345) in Colo320 DM cells; assay type: cell-based, human; conditions: Homo sapiens, COLO 320DM, compound overnight (approximately 16 hours)
Outline: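 Phospho-CHK1 (S345) read by AlphaLisa SureFire in lysates of human colorectal Colo320 DM cells. Compound treatment ran overnight (~16 h, 37 °C, DMSO <0.5%) on cells seeded the day before.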

human hepatocytes = assay: Human hepatocyte stability assay; assay type: in vitro ADME; conditions: 0.5×10^6 viable cells/ml, time points 0.5 and 60 minutes
Procedure: 1. 10 mM stock solutions of test compounds and positive control were prepared in DMSO. Thawing medium and supplement incubation medium (serum-free) were placed in a 37° C. water bath for at least 15 minutes prior to use.
2. Stock solutions were diluted to 100 μM by combining 198 μL acetonitrile and 2 μL of 10 mM stock solution. Verapamil was use as positive control in the assay.
3. Vials of cryopreserved human hepatocytes were removed from storage, while ensuring that vials remain at cryogenic temperatures. The pressure was removed by loosening and re-tightening the cap. The vials were thawed in a 37° C. water bath with gentle shaking. Vials remained in the water bath until all ice crystals had dissolved and were no longer visible. Vials were sprayed with 70% ethanol before being transferred to a biosafety cabinet. Then the contents were poured into a 50 mL thawing medium conical tube. Vials were centrifuged at 100 g for 10 minutes at room temperature. Thawing medium was aspirated and hepatocytes were re-suspended with serum-free incubation medium to yield ˜1.5×10^6 cells/mL.
4. Cell viability and density were counted using Cellometer® Vision, and then cells were diluted with serum-free incubation medium to a working cell density of 0.5×10^6 viable cells/ml.
5. Aliquots of 198 μL hepatocytes were dispensed into each well of a 96-well non-coated plate. The plate was placed in the incubator on an orbital shaker at 500 rpm for approximately 10 minutes.
6. Aliquots of 2 μL of the 100 μM test compounds or verapamil were added into respective wells of the non-coated 96-well plate to start the reaction. This assay was performed in duplicate. The plate was incubated in the incubator on an orbital shaker at 500 rpm for the designed time points.
7.25 μL of contents were transferred and mixed with 5 volumes (125 μL) of cold acetonitrile with IS (100 nM alprazolam, 200 nM caffeine, 100 nM labetalol and 100 nM tolbutamide) to terminate the reaction at time points of 0.5 and 60 minutes. Samples were centrifuged for 30 minutes at 3,220 g. Then transfer 100 μL of the supernatant to new 96-well plates for analysis. Add 100 μL of distilled water to each sample and mix for analysis by LC-MS/MS.
All calculations were carried out using Microsoft Excel. Peak areas were determined from extracted ion chromatograms. The in vitro half-life (tin) of the parent compound was determined by regression analysis of the percent parent disappearance vs. time curve. • a. The in vitro half-life (in vitro tin) was determined from the slope value: in vitro t1/2=0.693/k • b. Conversion of the in vitro tin (in min) into the in vitro intrinsic clearance (in vitro CLint, in μL/min/10^6 cells) was done using the following equation: […]

RNR (RNR1:RNR2 1:1) = biological target: T1, RNR (RNR1:RNR2 1:1) (Homo sapiens, UniProt P23921); assay: RNR enzyme activity, rapid-fire mass spectrometry (RF/MS) assay; assay type: biochemical; conditions: [RNR] 50 nM, 1:1 RNR1:RNR2; CDP 5 μM; ATP 1 mM; 37° C., 45 min; compounds screened up to 50 μM
T1 sequence (P23921 1-792): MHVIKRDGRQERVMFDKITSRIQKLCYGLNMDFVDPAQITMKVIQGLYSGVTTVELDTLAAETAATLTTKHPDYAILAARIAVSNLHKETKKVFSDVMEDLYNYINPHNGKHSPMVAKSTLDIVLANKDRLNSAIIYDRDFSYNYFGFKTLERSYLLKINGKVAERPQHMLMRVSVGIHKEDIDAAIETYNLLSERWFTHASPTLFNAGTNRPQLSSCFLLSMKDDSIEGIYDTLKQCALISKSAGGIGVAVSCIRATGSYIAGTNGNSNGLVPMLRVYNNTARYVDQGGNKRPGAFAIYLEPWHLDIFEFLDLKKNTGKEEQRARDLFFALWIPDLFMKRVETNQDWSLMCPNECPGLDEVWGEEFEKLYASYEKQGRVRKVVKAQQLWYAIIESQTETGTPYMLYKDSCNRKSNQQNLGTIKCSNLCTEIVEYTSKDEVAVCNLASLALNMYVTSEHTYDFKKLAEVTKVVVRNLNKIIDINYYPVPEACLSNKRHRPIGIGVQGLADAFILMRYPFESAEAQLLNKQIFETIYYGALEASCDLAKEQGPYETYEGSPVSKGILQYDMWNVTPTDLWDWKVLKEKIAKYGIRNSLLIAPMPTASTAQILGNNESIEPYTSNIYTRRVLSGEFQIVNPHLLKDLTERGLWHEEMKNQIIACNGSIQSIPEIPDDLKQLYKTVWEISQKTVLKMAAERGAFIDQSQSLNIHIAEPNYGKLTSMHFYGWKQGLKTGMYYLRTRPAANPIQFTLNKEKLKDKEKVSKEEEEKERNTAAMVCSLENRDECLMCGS
Outline: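 Human RNR (50 nM final, RNR1:RNR2 1:1) pre-incubated 15 min at room temperature, then reacted 45 min at 37 °C with 5 μM CDP and 1 mM ATP, no NADPH. Reaction quenched with 6% HCOOH; product quantified by rapid-fire mass spectrometry.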

SMILES	IC50 [1] [µM]	IC50 (RNR (RNR1:RNR2 1:1)) [µM]	Clhep (human hepatocytes)
Cc1ccc(F)c([C@@H](C)[C@@H](c2n[nH]c(=O)o2)N2CN(C3CCOC(C)(C)C3)c3cc(Cl)ccc3S2(=O)=O)c1C (single isomer, unassigned) [Example 89]	≤ 1	–	B (10 ml/min/kg < Clhep ≤ 20 ml/min/kg)
Cc1ccc(F)c([C@@H](C)[C@@H](c2n[nH]c(=O)o2)N2CN([C@H]3CCOC(C)(C)C3)c3cc(Cl)ccc3S2(=O)=O)c1C (single isomer, unassigned) [Example 90]	≤ 1	–	B (10 ml/min/kg < Clhep ≤ 20 ml/min/kg)
Cc1ccc(F)c([C@@H](C)[C@@H](c2n[nH]c(=O)o2)N2CN(C)c3cc(Cl)ccc3S2(=O)=O)c1C [Example 1, 5-((1S,2R)-1-(6-chloro-4-methyl-1,1-dioxido-3,4-dihydro-2H-benzo[e][1,2,4]thiadiazin-2-yl)-2-(6-fluoro-2,3-dimethylphenyl)propyl)-1,3,4-oxadiazol-2(3H)-one]	≤ 1	< 0.02	A (0 ml/min/kg ≤ Clhep ≤ 10 ml/min/kg)
Cc1ccc(F)c([C@@H](C)[C@@H](c2n[nH]c(=O)o2)N2CCOc3cc(Cl)ccc3S2(=O)=O)c1C [Example 2, 5-((1S,2R)-1-(7-chloro-1,1-dioxido-3,4-dihydro-2H-benzo[b][1,4,5]oxathiazepin-2-yl)-2-(6-fluoro-2,3-dimethylphenyl)propyl)-1,3,4-oxadiazol-2(3H)-one]	1 to 5	< 0.02	A (0 ml/min/kg ≤ Clhep ≤ 10 ml/min/kg)
Cc1ccc(F)c([C@@H](C)[C@@H](c2n[nH]c(=O)o2)N2CN(C)c3nc(Cl)ccc3S2(=O)=O)c1C [Example 3, 5-((1S,2R)-1-(6-chloro-4-methyl-1,1-dioxido-3,4-dihydro-2H-pyrido[2,3-e][1,2,4]thiadiazin-2-yl)-2-(6-fluoro-2,3-dimethylphenyl)propyl)-1,3,4-oxadiazol-2 (3H)-one]	≤ 1	< 0.02	B (10 ml/min/kg < Clhep ≤ 20 ml/min/kg)
Cc1ccc(F)c([C@@H](C)[C@@H](c2n[nH]c(=O)o2)N2CNc3cc(Cl)ccc3S2(=O)=O)c1C [Example 8, 5-((1S,2R)-1-(6-chloro-1,1-dioxido-3,4-dihydro-2H-benzo[e][1,2,4]thiadiazin-2-yl)-2-(6-fluoro-2,3-dimethylphenyl)propyl)-1,3,4-oxadiazol-2 (3H)-one]	≤ 1	0.02 to 0.1	B (10 ml/min/kg < Clhep ≤ 20 ml/min/kg)
COCCCN1CN([C@H](c2n[nH]c(=O)o2)[C@H](C)c2c(F)ccc(C)c2C)S(=O)(=O)c2ccc(Cl)nc21 [Example 48, 5-((1S,2R)-1-(6-chloro-4-(3-methoxypropyl)-1,1-dioxido-3,4-dihydro-2H-pyrido[2,3-e][1,2,4]thiadiazin-2-yl)-2-(6-fluoro-2,3-dimethylphenyl)propyl)-1,3,4-oxadiazol-2 (3H)-one]	≤ 1	< 0.02	A (0 ml/min/kg ≤ Clhep ≤ 10 ml/min/kg)
Cc1ccc(F)c([C@@H](C)[C@@H](c2n[nH]c(=O)o2)N2CN(CCN3CCCC3)c3nc(Cl)ccc3S2(=O)=O)c1C [Example 92, 5-((1S,2R)-1-(6-chloro-1,1-dioxido-4-(2-(pyrrolidin-1-yl)ethyl)-3,4-dihydro-2H-pyrido[2,3-e][1,2,4]thiadiazin-2-yl)-2-(6-fluoro-2,3-dimethylphenyl)propyl)-1,3,4-oxadiazol-2 (3H)-one]	1 to 5	–	A (0 ml/min/kg ≤ Clhep ≤ 10 ml/min/kg)

Further lines, with some results ahead:

IC50 [1] [µM]	IC50 (RNR (RNR1:RNR2 1:1)) [µM]	SMILES	Clhep (human hepatocytes)
≤ 1	–	Cc1ccc(F)c([C@@H](C)[C@@H](c2n[nH]c(=O)o2)N2CN(CCN3CCOCC3)c3nc(Cl)ccc3S2(=O)=O)c1C [Example 93, 5-((1S,2R)-1-(6-chloro-4-(2-morpholinoethyl)-1,1-dioxido-3,4-dihydro-2H-pyrido[2,3-e][1,2,4]thiadiazin-2-yl)-2-(6-fluoro-2,3-dimethylphenyl)propyl)-1,3,4-oxadiazol-2 (3H)-one]	A (0 ml/min/kg ≤ Clhep ≤ 10 ml/min/kg)
≤ 1	–	CON1CN([C@H](c2n[nH]c(=O)o2)[C@H](C)c2c(F)ccc(C)c2C)S(=O)(=O)c2ccc(Cl)cc21 [Example 116, 5-((1S,2R)-1-(6-chloro-4-methoxy-1,1-dioxido-3,4-dihydro-2H-benzo[e][1,2,4]thiadiazin-2-yl)-2-(6-fluoro-2,3-dimethylphenyl)propyl)-1,3,4-oxadiazol-2 (3H)-one]	B (10 ml/min/kg < Clhep ≤ 20 ml/min/kg)
1 to 5	–	Cc1ccc(F)c([C@@H](C)[C@@H](c2n[nH]c(=O)o2)N2CN([C@H](C)CO)c3cc(Cl)ccc3S2(=O)=O)c1C [Example 117, 5-((1S,2R)-1-(6-chloro-4-((R)-1-hydroxypropan-2-yl)-1,1-dioxido-3,4-dihydro-2H-benzo[e][1,2,4]thiadiazin-2-yl)-2-(6-fluoro-2,3-dimethylphenyl)propyl)-1,3,4-oxadiazol-2 (3H)-one]	B (10 ml/min/kg < Clhep ≤ 20 ml/min/kg)
≤ 1	–	Cc1ccc(F)c([C@@H](C)[C@@H](c2n[nH]c(=O)o2)N2CN(C3CC(=O)C3)c3cc(Cl)ccc3S2(=O)=O)c1C [Example 118, 5-((1S,2R)-1-(6-chloro-1,1-dioxido-4-(3-oxocyclobutyl)-3,4-dihydro-2H-benzo[e][1,2,4]thiadiazin-2-yl)-2-(6-fluoro-2,3-dimethylphenyl)propyl)-1,3,4-oxadiazol-2 (3H)-one]	B (10 ml/min/kg < Clhep ≤ 20 ml/min/kg)
1 to 5	–	Cc1ccc(F)c([C@@H](C)[C@@H](c2n[nH]c(=O)o2)N2CN(O)c3cc(Cl)ccc3S2(=O)=O)c1C [Example 120, 5-((1S,2R)-1-(6-chloro-4-hydroxy-1,1-dioxido-3,4-dihydro-2H-benzo[e][1,2,4]thiadiazin-2-yl)-2-(6-fluoro-2,3-dimethylphenyl)propyl)-1,3,4-oxadiazol-2 (3H)-one]	B (10 ml/min/kg < Clhep ≤ 20 ml/min/kg)
≤ 1	–	Cc1ccc(F)c([C@@H](C)[C@@H](c2n[nH]c(=O)o2)N2CN([C@@H](C)CO)c3cc(Cl)ccc3S2(=O)=O)c1C [Example 121, 5-((1S,2R)-1-(6-chloro-4-((S)-1-hydroxypropan-2-yl)-1,1-dioxido-3,4-dihydro-2H-benzo[e][1,2,4]thiadiazin-2-yl)-2-(6-fluoro-2,3-dimethylphenyl)propyl)-1,3,4-oxadiazol-2 (3H)-one]	B (10 ml/min/kg < Clhep ≤ 20 ml/min/kg)
